# Molecular target: Human factor D (Homo sapiens (Human), UniProt P00746)
# Assay: Human Factor D Assay
# Assay type: biochemical
# Details: Human factor D purified from human serum, 80 nM; substrate Z-L-Lys-SBzl with DTNB; assay of Example 8
# Protocol: The assay of Example 8 was used to determine the IC50's of the compounds. Other standard factor D inhibition assays are also available.
# Example 8. Human Factor D Assay
# Human factor D (purified from human serum, Complement Technology, Inc.) at 80 nM final concentration is incubated with test compound at various concentrations for 5 minutes at room temperature in 50 mM Tris, 1M NaCl, pH 7.5. A synthetic substrate Z-L-Lys-SBzl and DTNB (Ellman's reagent) are added to final concentrations of 100 µM each. The increase in color is recorded at OD405 nm in a microplate in kinetic mode over 30 minutes with 30 second time points in a […]. IC50 values are calculated by non-linear regression from the percentage of inhibition of complement factor D activity as a function of test compound concentration.
# Sequence of Human factor D (P00746 26-253): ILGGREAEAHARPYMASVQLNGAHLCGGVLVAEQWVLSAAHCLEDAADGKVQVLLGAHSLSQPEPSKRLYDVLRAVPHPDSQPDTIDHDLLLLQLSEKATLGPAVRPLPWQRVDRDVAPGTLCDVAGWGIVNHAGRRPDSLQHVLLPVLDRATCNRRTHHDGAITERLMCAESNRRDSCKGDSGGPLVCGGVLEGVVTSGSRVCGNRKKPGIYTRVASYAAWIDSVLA
row,SMILES,IC50 [nM]
1,"CC(=O)c1cn(CC(=O)N2C[C@H](F)C[C@H]2C(=O)NCc2cccc(Cl)c2F)c2cc(OCC3CC3)ccc12 [Compound 1, (2S,4R)-1-(2-(3-acetyl-6-(cyclopropylmethoxy)-1H-indol-1-yl)acetyl)-N-(3-chloro-2-fluorobenzyl)-4-fluoropyrrolidine-2-carboxamide]",< 1000
2,"CC(=O)c1cn(CC(=O)N2C[C@H](F)C[C@H]2C(=O)NCc2cccc(Cl)c2F)c2cc(OS(=O)(=O)C(F)(F)F)ccc12 [Compound 2, 3-acetyl-1-(2-((2S,4R)-2-(3-chloro-2-fluorobenzylcarbamoyl)-4-fluoropyrrolidin-1-yl)-2-oxoethyl)-1H-indol-6-yl trifluoromethanesulfonate]",< 1000
3,"CC(=O)c1cn(CC(=O)N2[C@@H]3C[C@@H]3C[C@H]2C(=O)NCc2cccc(Cl)c2F)c2cc(OCC3CC3)ccc12 [Compound 3, (1R,3S,5R)-2-(2-(3-acetyl-6-(cyclopropylmethoxy)-1H-indol-1-yl)acetyl)-N-(3-chloro-2-fluorobenzyl)-2-azabicyclo[3.1.0]hexane-3-carboxamide]",< 1000
4,"CC(=O)c1cn(CC(=O)N2C[C@H](F)C[C@H]2C(=O)Nc2cccc(OC(F)(F)F)c2F)c2cc(OCC3CC3)ccc12 [Compound 4, (2S,4R)-1-(2-(3-acetyl-6-(cyclopropylmethoxy)-1H-indol-1-yl)acetyl)-4-fluoro-N-(2-fluoro-3-(trifluoromethoxy)phen-yl)pyrrolidine-2-carboxamide]",< 1000
5,"CC(=O)c1cn(CC(=O)N2C[C@H](F)C[C@H]2C(=O)NCc2cccc(Cl)c2F)c2cc(OCCC3CC3)ccc12 [Compound 5, (2S,4R)-1-(2-(3-acetyl-6-(2-cyclopropylethoxy)-1H-indol-1-yl)acetyl)-N-(3-chloro-2-fluorobenzyl)-4-fluoropyrrolidine-2-carboxamide]",< 1000
6,"CCOP(=O)(COc1ccc2c(C(C)=O)cn(CC(=O)N3C[C@H](F)C[C@H]3C(=O)NCc3cccc(Cl)c3F)c2c1)OCC [Compound 7, diethyl (3-acetyl-1-(2-((2S,4R)-2-(3-chloro-2-fluorobenzylcarbamoyl)-4-fluoropyrrolidin-1-yl)-2-oxoethyl)-1H-indol-6-yloxy)methylphosphonate]",< 1000
7,"CC(=O)c1cn(CC(=O)N2C[C@H](F)C[C@H]2C(=O)NCc2cccc(Cl)c2F)c2cc(OCP(=O)(O)O)ccc12 [Compound 8, (3-acetyl-1-(2-((2S,4R)-2-(3-chloro-2-fluorobenzylcarbamoyl)-4-fluoropyrrolidin-1-yl)-2-oxoethyl)-1H-indol-6-yloxy)methylphosphonic acid]",< 1000
8,"CC(=O)c1cn(CC(=O)N2C[C@H](F)C[C@H]2C(=O)NCc2cccc(Cl)c2F)c2ccc(OS(=O)(=O)C(F)(F)F)cc12 [Compound 9, 3-acetyl-1-(2-((2S,4R)-2-(3-chloro-2-fluorobenzylcarbamoyl)-4-fluoropyrrolidin-1-yl)-2-oxoethyl)-1H-indol-5-yl trifluoromethanesulfonate]",< 1000
9,"CCOP(=O)(COc1ccc2c(c1)c(C(C)=O)cn2CC(=O)N1C[C@H](F)C[C@H]1C(=O)NCc1cccc(Cl)c1F)OCC [Compound 10, diethyl (3-acetyl-1-(2-((2S,4R)-2-(3-chloro-2-fluorobenzylcarbamoyl)-4-fluoropyrrolidin-1-yl)-2-oxoethyl)-1H-indol-5-yloxy)methylphosphonate]",< 1000
10,"CC(=O)c1cn(CC(=O)N2C[C@H](F)C[C@H]2C(=O)NCc2cccc(Cl)c2F)c2ccc(OCP(=O)(O)O)cc12 [Compound 11, (3-acetyl-1-(2-((2S,4R)-2-(3-chloro-2-fluorobenzylcarbamoyl)-4-fluoropyrrolidin-1-yl)-2-oxoethyl)-1H-indol-5-yloxy)methylphosphonic acid]",< 1000
11,"CC(=O)c1cn(CC(=O)N2C[C@H](F)C[C@H]2C(=O)NCc2cccc(Cl)c2F)c2cc(OCP(=O)(OCOC(=O)OC(C)C)OCOC(=O)OC(C)C)ccc12 [Compound 12, (((3-acetyl-1-(2-((2S,4R)-2-(3-chloro-2-fluorobenzylcarbamoyl)-4-fluoropyrrolidin-1-yl)-2-oxoethyl)-1H-indol-6-yloxy)methyl)phospho-ryl)bis(oxy)bis(methylene) isopropyl dicarbonate]",< 1000
12,"CC(=O)c1cn(CC(=O)N2C[C@H](F)C[C@H]2C(=O)NCc2cccc(Cl)c2F)c2cc(OCP(=O)(O)OCOC(=O)OC(C)C)ccc12 [Compound 13, (((3-acetyl-1-(2-((2S,4R)-2-(3-chloro-2-fluorobenzylcarbamoyl)-4-fluoropyrrolidin-1-yl)-2-oxoethyl)-1H-indol-6-yloxy)methyl)(hydro-xy)phosphoryloxy)meth-yl isopropyl carbonate]",< 1000
13,"CCOP(=O)(CC)COc1ccc2c(C(C)=O)cn(CC(=O)N3C[C@H](F)C[C@H]3C(=O)NCc3cccc(Cl)c3F)c2c1 (stereo partly drawn) [Compound 14, ethyl (3-acetyl-1-(2-((2S,4R)-2-(3-chloro-2-fluorobenzylcarbamoyl)-4-fluoropyrrolidin-1-yl)-2-oxoethyl)-1H-indol-6-yloxy)methyl(eth-yl)phosphinate]",< 1000
14,"CC(=O)c1cn(CC(=O)N2C[C@H](F)C[C@H]2C(=O)NCc2cccc(Cl)c2F)c2cc(OCS(=O)(=O)NC(C)(C)C)ccc12 [Compound 15, (2S,4R)-1-(2-(3-acetyl-6-(N-tert-butylsulfamoylmethoxy)-1H-indol-1-yl)acetyl)-N-(3-chloro-2-fluorobenzyl)-4-fluoropyrrolidine-2-carboxamide]",< 1000
15,"CCP(=O)(O)COc1ccc2c(C(C)=O)cn(CC(=O)N3C[C@H](F)C[C@H]3C(=O)NCc3cccc(Cl)c3F)c2c1 [Compound 16, (3-acetyl-1-(2-((2S,4R)-2-(3-chloro-2-fluorobenzylcarbamoyl)-4-fluoropyrrolidin-1-yl)-2-oxoethyl)-1H-indol-6-yloxy)methyl(eth-yl)phosphinic acid]",< 1000
16,"CC(=O)c1cn(CC(=O)N2C[C@H](F)C[C@H]2C(=O)NCc2cccc(Cl)c2F)c2cc(OCS(N)(=O)=O)ccc12 [Compound 17, (2S,4R)-1-(2-(3-acetyl-6-(sulfamoylmethoxy)-1H-indol-1-yl)acetyl)-N-(3-chloro-2-fluorobenzyl)-4-fluoropyrrolidine-2-carboxamide]",< 1000
17,"CCOP(=O)(COc1ccc2c(C(C)=O)cn(CC(=O)N3C[C@H](F)C[C@H]3C(=O)N[C@H](C)c3cccc(Cl)c3F)c2c1)OCC [Compound 18, diethyl (3-acetyl-1-(2-((2S,4R)-2-((R)-1-(3-chloro-2-fluorophen-yl)ethylcarbamoyl)-4-fluoropyrrolidin-1-yl)-2-oxoethyl)-1H-indol-6-yloxy)methylphosphonate]",< 1000
18,"CC(=O)c1cn(CC(=O)N2C[C@H](F)C[C@H]2C(=O)N[C@H](C)c2cccc(Cl)c2F)c2cc(OCP(=O)(O)O)ccc12 [Compound 19, (3-acetyl-1-(2-((2S,4R)-2-((R)-1-(3-chloro-2-fluorophenyl)ethyl-carbamoyl)-4-fluoropyrrolidin-1-yl)-2-oxoethyl)-1H-indol-6-yloxy)methylphosphonic acid]",< 1000
19,"CCCCCCCCCCCCCCCCOCCCOP(=O)(O)COc1ccc2c(C(C)=O)cn(CC(=O)N3C[C@H](F)C[C@H]3C(=O)NCc3cccc(Cl)c3F)c2c1 [Compound 20, 3-(hexadecyloxy)propyl hydrogen (3-acetyl-1-(2-((2S,4R)-2-(3-chloro-2-fluorobenzylcarbamoyl)-4-fluoropyrrolidin-1-yl)-2-oxoethyl)-1H-indol-6-yloxy)methylphosphonate]",< 1000

# From patent publication US9732104B2, “Ether compounds for treatment of complement mediated disorders” (Achillion Pharmaceuticals, Inc., priority 2014, dated 2017)
